Values after ≈ are worked out from the molar mass of the structure shown. “Also recorded” adds a separate entry of the source.
Columns and labels:
Format in all cases: physicochemical
[1] = Solubility study at 37° C. (buffer, water, bio-relevant media, MeOH/DCM)
Description: In addition, residual solids were checked by chiral HPLC to confirm whether racemization occurs.
Accurate 4 mg of I-1 Form A, 5.13 mg of I-3 Form A, 4.63 mg of I-4 Form A was weighed into a 8 mL glass vial, respectively. 2 mL of solubility medium was added. The salt amount used is equivalent to 4 mg anhydrous free form. Obtained suspensions/solutions were stirred at 37° C. at 400 rpm for 2 hours and 24 hours and then centrifuged at 37° C. at 14,000 rpm for 5 min. Supernatants were analyzed by UPLC and PH meter for solubility and pH value, respectively. Residual solids (wet cakes) were characterized by XRPD to determine physical form and then analyzed by HPLC for chiral purity.

Bulk stability (1 week) = assay: Bulk stability (1 week); design: key to CL (color): A: No change of color; B: Slight discoloration; C: Medium discoloration; D: Strong discoloration; DC: complete decomposition; settings: for CL (color) / Bulk (HPLC) chiral purity / Bulk (HPLC) purity / Bulk (XRPD): Solid state
Description: Bulk stability of I-1 Form A and the 2 salt candidates was investigated at 25° C./92% RH in an open container, at 40° C./75% RH in an open container and at 60° C. in a tight container over 1 week. […] All the 3 salts show no obvious racemization based on chiral purity results.
I-1 Form A and the 2 salts were placed at 25° C./92% RH in an open container, at 40° C./75% RH in an open container and at 60° C. in a closed container for I week. Samples after I week were characterized by XRPD and HPLC and inspected for color change.

[2] = Suspension stability at 25° C.; settings: for physical form of residual solids (XRPD): 0.5% MC (400 cP)+2% Vitamin E TPGS; for Chiral purity / Purity / Solubility / pH / Chiral purity (solids) / Chiral purity, liquid / Chiral purity, solid: 25° C.
Description: Suspension stability: Suspension stability of I-1 Form A and the 2 salt candidates was investigated in pure water, 0.5% (w/w) Tween 80 aqueous solution and 0.5% (w/w) MC (400 cP)+2% (w/w) Vitamin E TPGS aqueous solution at 25° C. for 2 h and 24 h. Target concentration was 2 mg/mL.
To confirm whether racemization occurs for the 2 salts in 0.5% (w/w) MC (400 cP)+2% (w/w) Vitamin E TPGS aqueous solution, the suspension stability in this vehicle was repeated at target concentration of 10 mg/mL. […] The hygroscopicity of these salts were further investigated.
Accurate 10 mg of I-1 Form A, 12.83 mg of I-3 Form A, 11.58 mg of I-4 Form A was weighed into a 8 mL glass vial, respectively. 5 mL of suspension vehicle was added, respectively. The salt amount used is equivalent to 10 mg anhydrous free form. These suspensions were stirred at 25° C. with 400 rpm. These suspensions were taken out at 2 hours and 24 hours, then centrifuged at 14,000 rpm for 5 min. The supernatants were analyzed by HPLC and pH meter. Solids obtained (wet cakes) were characterized by XRPD and HPLC to determine the chiral purity.
Accurate […] of I-3 Form A, 46.3 mg of I-4 Form A was weighed into a 8 mL glass vial, respectively. 4 mL of solubility medium was added, respectively. The salt amount used is equivalent to 40 mg anhydrous free form. 4 mL of the aqueous vehicle (0.5% (w/w) MC (400 cP) and 2% (w/w) Vitamin E TPGS in water) was added, respectively. These suspensions were stirred at 25° C. with 400 rpm. These suspensions were taken out at 2 hours and 24 hours, then centrifuged at 14,000 rpm for 5 min. The supernatants were analyzed by HPLC for the solubility and chiral purity and analyzed by pH meter. Solids obtained (wet cakes) were characterized by XRPD and HPLC for chiral purity.

[3] = FaSSIF-V1, pH 6.5, 2 hours, listed as I-3 Form A
[4] = FaSSIF-V1, pH 6.5, 24 hours, listed as I-3 Form A
[5] = FeSSIF-V1, pH 5.0, 2 hours, listed as I-3 Form A
[6] = FeSSIF-V1, pH 5.0, 24 hours, listed as I-3 Form A
[7] = SGF, pH 2.0, 24 hours, listed as I-3 Form A
[8] = Water, 24 hours, listed as I-3 Form A
[9] = pH 2, HCl, 24 hours, listed as I-3 Form A
[10] = Salt candidates risk matrix (summary)
[11] = 25° C./92% RH, open container, 1 week, listed as I-3 Form A
[12] = 40° C./75% RH, open container, 1 week, listed as I-3 Form A
[13] = 60° C., tight container, 1 week
[14] = 60° C., tight container, 1 week, listed as I-3 Form A
[15] = before storage, listed as I-3 Form A
[16] = 2 mg/mL, 0.5%(w/w) MC(400 cP) and 2%(w/w) Vitamin E TPGS in water, 2 h, listed as I-3 Form A
[17] = 2 mg/mL, 0.5%(w/w) MC(400 cP) and 2%(w/w) Vitamin E TPGS in water, 24 h, listed as I-3 Form A
[18] = 2 mg/mL, 0.5%(w/w) Tween 80 in water, 2 h, listed as I-3 Form A
[19] = 2 mg/mL, 0.5%(w/w) Tween 80 in water, 24 h, listed as I-3 Form A
[20] = 2 mg/mL, Pure water, 2 h, listed as I-3 Form A
[21] = 2 mg/mL, Pure water, 24 h, listed as I-3 Form A
[22] = 10 mg/mL, 0.5(w/w) MC(400 cP) and 2%(w/w) Vitamin E TPGS in water, 2 h, listed as I-3 Form A
[23] = 10 mg/mL, 0.5(w/w) MC(400 cP) and 2%(w/w) Vitamin E TPGS in water, 24 h, listed as I-3 Form A

SMILES: N#Cc1c(-c2cc(NC(=O)c3cc(F)cc(C(F)(F)F)c3)c3c(c2)C(=O)N[C@H]3c2cc(F)ccc2Cl)ccc2ncnn12 [Compound I-3]
- Chiral purity [1, 3]: purity: 96.1%)
- Solubility [1, 3]: 52.2 μg/mL (chiral
- Chiral purity (solids) [1, 4]: 98.4%)
- Solubility [1, 4]: 0.7 µg/mL (≈ 1.15 µM)
- pH of supernatant [1, 4]: 6.17
- Chiral purity [1, 5]: purity: 97.1%)
- Solubility [1, 5]: 176.1 μg/mL(chiral
- Chiral purity (solids) [1, 6]: 66.4%)
- Solubility [1, 6]: 19.0 µg/mL (≈ 31.2 µM)
- pH of supernatant [1, 6]: 4.86
- Solubility ([1]; MeOH/DCM (1:2, v/v), 2 hours, listed as I-3 Form A): >75000 µg/mL
- Solubility ([1]; MeOH/DCM (1:2, v/v), 24 hours, listed as I-3 Form A): >75000 µg/mL
- Solubility ([1]; SGF, pH 2.0, 2 hours, listed as I-3 Form A): 4.2 µg/mL (≈ 6.9 µM)
- Chiral purity (solids) [1, 7]: 98.3%)
- Solubility [1, 7]: 1.3 µg/mL (≈ 2.13 µM)
- pH of supernatant [1, 7]: 1.92
- Solubility ([1]; Water, 2 hours, LOQ: 0.5 μg/mL): <LOQ
- Solubility ([1]; Water, 24 hours, LOQ: 0.5 μg/mL): LOQ
- Chiral purity (solids) [1, 8]: 98.3%)
- pH of supernatant [1, 8]: 2.54
- solubility in MeOH/DCM (1:2, v/v) ([1]; listed as I-3 Form A): > 75000 µg/mL
- Solubility ([1]; pH 2, HCl, 2 hours, LOQ: 0.5 μg/mL): <LOQ
- Solubility ([1]; pH 2, HCl, 24 hours, LOQ: 0.5 μg/mL): LOQ
- Chiral purity (solids) [1, 9]: 98.3%)
- pH of supernatant [1, 9]: 1.86
- bulk stability (chemical and physical) (Bulk stability (1 week); 25° C./92% RH open, 40° C./75% RH open, 60° C. tight container, 1 week, listed as I-3 Form A): chemically and physically stable; also recorded: chemically stable and shows no XRPD change; also recorded: good chemical and physical bulk stability
- Chemical stability (Bulk stability (1 week); [10]): Stable
- Physical stability (Bulk stability (1 week); [10]): Stable
- CL (color) (Bulk stability (1 week); 25° C./92% RH, open container, 1 week): A
- Bulk (HPLC) chiral purity (Bulk stability (1 week); [11]): 98.3%
- Bulk (HPLC) purity (Bulk stability (1 week); [11]): 99.4%/
- Bulk (XRPD) (Bulk stability (1 week); [11]): No form change*
- CL (color) (Bulk stability (1 week); 40° C./75% RH, open container, 1 week): A
- Bulk (HPLC) chiral purity (Bulk stability (1 week); [12]): 98.5%
- Bulk (HPLC) purity (Bulk stability (1 week); [12]): 99.3%/
- Bulk (XRPD) (Bulk stability (1 week); [12]): No form change*
- Bulk (XRPD) (Bulk stability (1 week); [13]): No form change
- CL (color) (Bulk stability (1 week); [13]): A
- Bulk (HPLC) chiral purity (Bulk stability (1 week); [14]): 98.3%
- Bulk (HPLC) purity (Bulk stability (1 week); [14]): 99.5%/
- Chiral purity (initial) (Bulk stability (1 week); [15]): 98.6%
- Initial purity by HPLC (Bulk stability (1 week); [15]): 99.5%
- physical form of residual solids (XRPD) ([2]; 10 mg/mL, 2 h sample, listed as I-3 Form A): converted to a hydrate (I-3 Form B)
- physical form of residual solids (XRPD) ([2]; 10 mg/mL, 2 h sample, listed as tosylate salt): a form change
- physical form of residual solids (XRPD) ([2]; 10 mg/mL, 24 h sample): remained unchanged
- Chiral purity [2, 16]: 86.4%
- Purity [2, 16]: 99.3%
- Solubility [2, 16]: 1220.9 µg/mL (≈ 2010 µM)
- pH [2, 16]: 2.76
- Chiral purity [2, 17]: 98.3%
- Purity [2, 17]: 99.3%
- Solubility [2, 17]: 1990.7 µg/mL (≈ 3270 µM)
- pH [2, 17]: 2.62
- Chiral purity [2, 18]: 95.8%
- Chiral purity (solids) [2, 18]: 98.0%
- Purity [2, 18]: 99.4%
- Solubility [2, 18]: 244.6 µg/mL (≈ 402 µM)
- pH [2, 18]: 3.11
- Chiral purity [2, 19]: 98.5%
- Chiral purity (solids) [2, 19]: 94.2%
- Purity [2, 19]: 99.4%
- Solubility [2, 19]: 17.9 µg/mL (≈ 29.4 µM)
- pH [2, 19]: 2.63
- Chiral purity (solids) [2, 20]: 98.3%
- Purity [2, 20]: 99.6%
- pH [2, 20]: 5.59
- Chiral purity (solids) [2, 21]: 98.3%
- Purity [2, 21]: 99.5%
- pH [2, 21]: 2.85
- Chiral purity, liquid [2, 22]: 99.4%;
- Chiral purity, solid [2, 22]: 97.9%
- Solubility [2, 22]: 3433.2 µg/mL (≈ 5640 µM)
- pH [2, 22]: 2.30
- Chiral purity, liquid [2, 23]: 99.4%;
- Chiral purity, solid [2, 23]: 98.3%
- Purity [2, 23]: 99.7%
- Solubility [2, 23]: 3083.9 µg/mL (≈ 5060 µM)
- pH [2, 23]: 2.17
- Initial chiral purity ([2]; before suspension, listed as I-3 Form A): Initial chiral purity: 98.6%

Source: patent US20260125374A1, “PI3K-ALPHA INHIBITORS AND METHODS OF MAKING AND USING THE SAME” (Relay Therapeutics, Inc., priority 2021, published 2026)
